One series relates to tumor growth. In words: tumor growth in vivo, orthovanadate and N-acetylcysteine (Example 7). Set-up: species or system mice. As to the method:
Since N-acetylcysteine is converted to glutathione in cells, higher levels of glutathione may not only reduce orthovanadate induced toxicity but may also reduce tumor formation.
Twenty mice were injected subcutaneously with 2×10^5 cells on Day 1. At day 4, the mice were divided into four groups of five mice. Group one (control) received subcutaneous injections of 50 μl of water. Group two received daily intraperitoneal injections of 50 μl of 250 mM N-acetylcysteine. Group three received daily subcutaneous injections of 50 μl of 10 mg/ml of orthovanadate. Group four received daily intraperitoneal injections of 50 μl of […] N-acetylcysteine and 20 minutes later received 50 μl of subcutaneous injection of 50 μl of 10 mg/ml of orthovanadate. On day 10 the treatment was stopped. The animals were sacrificed on Day 13 and analyzed for tumor growth.

In series [1] the test system is metastases of MDAY-D2 cells. In words: liver metastases of MDAY-D2 cells (histology). The format is in vivo, mice. The following applies: 500 μg/day; preliminary results. An excerpt:
In order to examine the ability of vanadyl compounds to reduce tumor formation, growth and metastases, a specific animal model which allows investigation of all of these processes in the same animal was chosen. This model involves the injection of a metastatic haematopoietic cell line, MDAY-D2, into mice subcutaneously. These cells form a tumor at the site of injection and its size can be easily determined. In addition, these cells metastasize to the liver and metastases can be detected histologically after day 17 to 19. This model provides a very sensitive and reproducible approach to investigate the effect of vanadyl compounds on tumor growth and metastases.
The metastatic liver was obtained from an animal 24 days following the administration MDAY-D2 cells. The nodules are quite numerous and large.
Livers were removed from animals treated as described above and prepared for histological examination. FIG. 16 compares liver sections from untreated (C), orthovanadate (VO)(500 μg/day) and vanadyl sulphate (VS)(500 μg/day) treated animals. Nodules are identified with an arrow.

Another series concerns LS180. In words: MTT cytotoxicity assay, LS180. The format is cell-based, human. The following applies: LS180, 72 hours. As to the method:
The relative cytotoxicity of various compounds on tumor cell lines was investigated as follows. Cytotoxicity was measured by the MTT microculture tetrazolium colorimetric assay for all cell lines. The relative cytotoxicity of Na3 VO4 and VOSO4 was investigated using the following tumor cell lines: P388(WT) murine leukemia, P388 (ADR) murine leukemia, Lewis murine lung, MCF7 (WT) human breast, […] human lung, K562 human erythroleukemia, A431 human epidermal, LS180 human colon and SK-OV-3 human ovarian. The relative cytotoxicity of doxorubicin, Na3 VO4 and VOSO4 was investigated using the following tumor cell lines: P388(WT) murine leukemia, P388 (ADR) murine leukemia, MCF7(WT) human breast and MCF7 (ADR) human breast. The relative cytotoxicity of BMOV, BEOV and naglivan was investigated using the following tumor cell lines: P388(WT) murine leukemia, P388 (ADR) murine leukemia, Lewis murine lung, H460 human lung, K562 human erythroleukemia, and SK-OV-3 human ovarian.
The cells were plated (number of cells/well was different from cell line to cell depending on the dividing rate) in a 96-well microculture plate 24 hours prior to the delivery of the vanadium compounds. Serial concentrations of solutions of the test compounds (0.05-100 μM) were delivered to the corresponding wells. […] The absorbance of each well was read with a Titertek Multiskan (310C) spectrophotometer at 570 nm. […]

The next series concerns PLA2. In words: release of 3H-arachidonic acid from chondrocytes (PLA2 activity). The format is cell-based, bovine. The following applies: 100 μM. The procedure:
The effect of orthovanadate and N-acetylcysteine on fos, jun and collagenase expression were examined. Bovine articular chondrocytes were isolated and plated as previously described (Kandel R. A. et al. Biochim. Biophys. Acta. 1053, 130-134, 1990). In order to determine the effect of orthovanadate on IL 1 and PMA (phorbol ester) induced responses, chondrocytes were incubated with orthovanadate (100 μM) for 2 hours before stimulation with IL 1 (10 ng/ml) or PMA ([…]). Collagenase production was determined by incubating chondrocytes for 24 hours with IL 1 or PMA and the cell conditioned medium was assayed for collagenase activity using an ELISA procedure as described previously (Kandel et al. supra). PLA2 activity was measured by incorporating ^3 H-arachidonic acid (^3 H-AA) into the cells and then incubating the cells with medium containing 1 mg/ml BSA, either alone or in the presence of IL 1 or PMA, for 10 min. as previously described (Conquer, J. A. […], Biochim. Biophys. Acta. 1134, 1-6). The amount of ^3 H-AA liberated into the supernatant was determined. To measure PGE2 production, chondrocytes were incubated for 6 hours in Ham's F12 medium, either alone or with IL 1 or PMA. The supernatant was analyzed by RIA using an antibody specific for PGE2 (Dr. S. A. Jones, Mount Sinai Hospital, Toronto, Canada). […]

The subject of a further series is articular cartilage. Nature of the series: electron microscopy of articular cartilage of arthritic rats. The format is in vivo, rat. The procedure:
The synovium of rats from each group was examined by electron microscopy. Rats in each group were selected on Day 5 and Day 18 post arthritis onset to study joint morphology. Scanning and Transmission electron microscopy was performed on selected glutaraldehyde fixed joints. One ankle joint of each arthritic control and BMOV-treated rat was removed, critical point dried, and gold sputter-coated for scanning electron microscopy on Day 18 post arthritis onset to examine the trochlear surfaces. Conventional transmission electron microscopy was also performed on the articular cartilage of the trochlear surfaces of naive, arthritic control, and BMOV-treated animals using a Jeol 1200EX.

On to `[Na+].[Na+].[Na+].[O]=[V]([O-])([O-])[O-]` [orthovanadate, sodium orthovanadate], for which the detectable tumors result in the series on tumor growth (day 13) is given as “two had no detectable tumors”. Besides, the animal deaths result in the series with tumor growth (orthovanadate 50 μl 10 mg/ml s.c. daily) was “One orthovanadate treated animal died”. Besides, the metastases in liver entry in series [1] is “did not have detectable levels of metastases”. For the same compound, in the series with LS180, half-maximal inhibition (IC50) was put at 16.4 µM. Further, in the series with PLA2, the “inhibition of IL 1 or PMA induced release of 3H-AA” value was “did not inhibit”.
As to `Cc1occc(=O)c1[O-].Cc1occc(=O)c1[O-].[O]=[V+2]` [BMOV, bis(methylmaltolato) oxovanadium (IV)], the “trochlear surface by scanning electron micrograph” value in the series on articular cartilage (Day 18) is given as “normal trochlear surface”. In the series with articular cartilage (rat, in vivo), the “articular cartilage by transmission electron micrograph” value was “indistinguishable from the naive animal”. Further, in the series on articular cartilage (scanning and transmission electron micrographs), the “cartilage damage of joints” value was “little cartilage damage and intact cartilage”.

For the origin of these results see patent publication US5871779A, “Treatment of arthropathies with vanadate compounds or analogues thereof” (Mount Sinai Hospital Corporation, priority 1996, dated 1999).
